Reference: patent US9682060B2, “Small molecules that induce intrinsic pathway apoptosis” (The Board of Trustees of the University of Illinois, priority 2015, dated 2017)
pKi: −log10 of the molar value. Non-standard residues stand in square brackets, D forms with d. Residues, ends and D or L forms follow the SMILES beside them. *: point of attachment. Nle = CCCC[C@H](N)C(=O)O; Cbz = O=C(OCc1ccccc1)*; CH2Cl = ClC*

Legend:
[1] = biological target: Calpain/Cathepsin; conditions: cited from earlier work
[2] = biological target: Granzyme B (Homo sapiens, UniProt P10144); conditions: cited from earlier work
[3] = test system: U-937 cells; test: Mitochondrial permeability transition pore (MPTP) calcein-cobalt assay; format: cell-based, Human; conditions: calcein-cobalt quenching
Description: Mitochondrial Permeability Transition Pore (MPTP) Calcein-Cobalt Assay.
U-937 cells (1×10^6 cells/mL in HBSS) were loaded with calcein-AM (20 nM final concentration) for 45 minutes at 37° C. The cells were washed with HBSS and resuspended in RPMI and plated into a 24-well plate (1×10^6 cells in 1 mL). The cells were treated with Raptinal (10 μM) for 15, 30, 45, 60 and 90 minutes. Cobalt(II) chloride was added (10 μL of 80 mM stock in HBSS) to the cells 10 minutes prior to the end of the time points. The cells were pelleted and resuspended in HBSS (0.5 mL) and calcein fluorescence was measured by flow cytometry. As a positive control for MPTP, ionomycin and calcium were added to calcein-labeled cells in HBSS 10 minutes prior to analysis by flow cytometry.

Chain of Granzyme B (P10144 21-247, species assumed): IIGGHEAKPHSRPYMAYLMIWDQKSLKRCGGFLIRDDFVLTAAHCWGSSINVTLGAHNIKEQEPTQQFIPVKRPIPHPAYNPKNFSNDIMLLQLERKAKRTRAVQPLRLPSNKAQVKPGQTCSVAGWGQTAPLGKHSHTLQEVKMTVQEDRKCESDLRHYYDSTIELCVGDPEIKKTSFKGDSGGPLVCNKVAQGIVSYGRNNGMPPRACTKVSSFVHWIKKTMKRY

In the case of `CCCC[C@@H](C=O)NC(=O)[C@H](CC(C)C)NC(=O)[C@H](CC(C)C)NC(C)=O` [Calpain/Cathepsin Inhibitor I] (Ac-Leu-Leu-[Nle]-aldehyde), the pKi [1] is given as 6.64 to 6.92.

In the case of `CC(NC(=O)OCc1ccccc1)C(=O)NC(C)C(=O)NC(CC(=O)O)C(=O)CCl` (stereo not drawn) [Granzyme B Inhibitor I] (Cbz-Ala-Ala-Asp-CH2Cl; configuration not given here), the pKi [2] is listed as 6.52.

For `C[C@H](CCC(=O)O)C[C@H](C)C[C@H](C)C(=O)/C=C(\O)[C@H](C)C[C@H](C)C/C=C/[C@@H](C)[C@@H](O)[C@@H](C)[C@@H](O)C[C@@H]1CC[C@@](C)([C@H]2CC[C@@](C)([C@@H](C)O)O2)O1` [lonomycin, ionomycin, reference compound], the “mitochondrial permeability transition pore (MPTP) formation” value [3] was “able to induce MPTP”.
